“And” between values parts separate entries of the source, which are not always exact repeats. Equal entries are not always repeated.
What was measured:
[1] = In vitro metabolic stability in cryopreserved hepatocytes (rat); assay type: in vitro ADME; conditions: Sprague-Dawley Rat hepatocytes, 0.5×10^6 cells/mL, 37° C.
From the text: (§1) 283, no. 1, pp. 46-58 (1997).

[2] = In vitro metabolic stability in cryopreserved hepatocytes (mouse); assay type: in vitro ADME; conditions: 0.5×10^6 cells/mL, 37° C.
From the text: as §1

[3] = Clinical 7-day study, serum exposure of Compound I; assay type: in vivo, human; conditions: healthy subjects, each 24-hour dosing period, all dosed groups
From the text: (§2) Second Study. […] 10-14, 2019.
(§3) Serum levels of Compound I in the subjects were periodically measured.

[4] = In vitro metabolic stability in cryopreserved hepatocytes (monkey); assay type: in vitro ADME; conditions: Cynomolgus Monkey hepatocytes, 0.5×10^6 cells/mL, 37° C.
From the text: as §1

[5] = Tissue distribution of radiolabeled (14C) Compound I after oral dose; assay type: in vivo; conditions: Long-Evans rats, oral 5 mg/kg (100 μCi/kg), up to 168 hours
[6] = In vitro metabolic stability in cryopreserved hepatocytes (human); assay type: in vitro ADME; conditions: 0.5×10^6 cells/mL, 37° C.
From the text: as §1

[7] = Pharmacokinetics assay, IV and oral, monkey; assay type: in vivo, cynomolgus monkeys; conditions: plasma; Cynomolgus Monkey, oral 5 mg/kg, IV 0.3 mg/kg
From the text: Results are shown in FIG. 1A (IV administration) and FIG. 1B (oral administration), and in Table 2. […] Smaller Vdss in monkeys is correlated with higher plasma protein binding.

FGF-19 = test: Clinical 7-day study, serum FGF-19; assay type: in vivo, human; conditions: healthy subjects, four hours after dosing on Day 7; dosing groups not assigned in the text
From the text: as §3
Serum levels of FGF-19 in the subjects were periodically measured. FIGS. 17A and 17B show changes of mean serum levels of FGF-19 from the pre-dose baseline in different dosing groups on Day 1 and Day 7, respectively.

[8] = Clinical 7-day study, safety and pruritus; assay type: in vivo, human; conditions: healthy volunteers
Procedure: as §2
Safety was assessed during dosing and for 10 (±1) days after dosing.

[9] = Clinical 7-day study, serum LDL; assay type: in vivo, human; conditions: healthy subjects, 25, 75, or 150 mg QD for 7 days
From the text: as §3
Serum levels of low-density lipoprotein (LDL) in the subjects were periodically measured.

[10] = In vitro metabolic stability in cryopreserved hepatocytes (dog); assay type: in vitro ADME; conditions: Beagle Dog hepatocytes, 0.5×10^6 cells/mL, 37° C.
From the text: as §1

[11] = PK profile after oral dosing in monkeys; assay type: in vivo; conditions: cynomolgus monkeys, oral 1 mg/kg for 7 consecutive days
Procedure: (§4) The pharmacodynamics were measured as a function of 7-alpha-hydroxy-4-cholesten-3-one (7α-C4) reduction (FIG. 4), as quantified by LC-MS/MS. Pharmacokinetics data is presented in Table 3, and were determined by non-compartmental analysis.

[12] = tested on: NASH induced by a high fat diet in combination with CCl4; test: Mouse model of NASH (high fat diet in combination with CCl4); assay type: in vivo, C57/BL6J mice; conditions: 28 days
Procedure: Hematoxylin & Eosin (H&E) and Sirius Red histological staining of liver tissue was used to quantitate NAFLD activity score (NAS), steatosis, ballooning, inflammation and fibrosis.
NAS is calculated based upon liver steatosis, inflammation, and ballooning and was determined by analysis of liver tissue histology using H&E stain. Specifically, inflammation score was calculated based upon H&E staining: Score 0, none; 1, <2 foci per 200X field; 2, 2-4 foci per 200X field; 3, >4 foci per 200X field. […] Hepatocellular ballooning is a form of liver cell injury associated with cell swelling and is also measured by H&E stained liver sections. The ballooning score is calculated as follows: 0-no hepatocyte ballooning; 1-few ballooning hepatocytes; 2-many hepatocytes with prominent ballooning.
Liver fibrosis was quantified by histological analysis of the percentage of Sirius Red-positive liver sections.

[13] = tested on: 7-alpha-hydroxy-4-cholesten-3-one (7α-C4); test: PD profile (7α-C4 reduction) after oral dosing in monkeys; assay type: in vivo; conditions: cynomolgus monkeys, oral 1 mg/kg for 7 consecutive days
Procedure: as §4

[14] = tested on: 7-alpha-hydroxy-4-cholesten-3-one (7α-C4); test: Clinical 7-day study, serum 7α-C4 suppression; assay type: in vivo, human; conditions: healthy subjects; for maximum suppression of serum 7α-C4 levels (reduction): Day 7, six hours after dosing
Procedure: as §2
Serum levels of 7-alpha-hydroxy-4-cholesten-3-one (7α-C4) in the subjects were periodically measured. FIGS. 16A and 16B show changes of mean serum levels of 7α-C4 from the pre-dose baseline in different dosing groups on Day 1 and Day 7, respectively. […] On Day 7, maximum suppression of serum 7α-C4 levels was observed six hours after dosing corresponding to a reduction of 74%, 82%, and 91% in the 25, 75, and 150 mg dosing groups, respectively.

[15] = tested on: FXR-regulated, inflammatory and fibrosis gene expression in the liver; test: Liver gene expression in NASH mouse model (RT-qPCR, RNA-seq); assay type: in vivo, C57/BL6J mice; conditions: 10, 30, or 100 mg/kg daily oral, 28 days
[16] = tested on: differentially expressed genes and pathways in liver; test: RNAseq of liver after single oral dose; conditions: mice liver, 6 hours; for number of differentially expressed genes modulated vs vehicle: fold change≥1.5, q-value<0.05; for number of global pathways enriched: p<0.05
Procedure: For RNAseq analysis, mRNA was extracted from total liver and sequenced using standard Illumina library preparation and sequencing protocols. Differentially expressed genes (DEG) were determined using RSEM and edgeR software packages and analyzed using Advaita Bio's iPathwayGuide software.

[17] = tested on: FXR-regulated gene expression in liver and ileum; test: RT-qPCR of FXR-regulated gene expression in liver and ileum after single oral dose; assay type: in vivo; conditions: mice, single oral dose 10 mg/kg, 6 hours after dose
From the text: For RT-qPCR, gene-specific primers were used to quantitate FXR-regulated gene expression in liver and ileum using the 2-ddCT method. Results are shown in FIG. 6 (data presented as mean±SEM; **** indicates p<0.0001 and * indicates p<0.05 versus vehicle, with statistics determined by one-way ANOVA followed by Tukey).

[18] = longer term studies; cited from earlier work
[19] = 10, 30, and 100 mg/kg daily oral
[20] = 10, 30, or 100 mg/kg daily oral

## Cn1cc(C(=O)O)c2ccc(N3CCC(OCc4c(-c5c(Cl)cccc5Cl)noc4C4CC4)CC3)cc21 [Compound I, 6-{4-[5-cyclopropyl-3-(2,6-dichloro-phenyl)-isoxazol-4-ylmethoxy]-piperidin-1-yl}-1-methyl-1H-indole-3-carboxylic acid]
[1]
  half-life at 1 µM: 2.18 ± 0.0685 h
[2]
  half-life at 1 µM: 0.727 ± 0.0472 h
[3]
  mean serum levels of Compound I versus its EC50: generally did not exceed the EC50
[4]
  half-life at 1 µM: 1.06 ± 0.013 h
[5]
  tissues with the most radioactive material: Liver, small intestine, and cecum
[6]
  half-life at 1 µM: 1.4 ± 0.108 h
[7]
  bioavailability: 18%
FGF-19
  maximum increases from baseline in serum FGF 19 levels: 718% and 486% and 454%
[8]; all doses (25, 75, 150 mg QD for 7 days)
  reports of pruritus: no reports of pruritus
[8]; all doses, during dosing and for 10 (±1) days after
  safety and tolerability: safe and well tolerated
[9]
  serum LDL changes above baseline: minimal
[10]
  half-life at 1 µM: 2.1 ± 0.258 h
[11]
  plasma exposure on day 1 and day 7: comparable
[12]; [19]
  ballooning score compared to untreated NASH mice: significantly reduced
  inflammation score compared to untreated NASH mice: significantly reduced
  steatosis score compared to untreated NASH mice: significantly reduced
[12]; [20]
  NAFLD Activity Score (NAS) compared to untreated NASH mice: significantly lower
  liver fibrosis (Sirius Red-positive area) compared to untreated NASH control: statistically significant reduced fibrosis
[13]
  suppression of the pharmacodynamics biomarker 7α-C4: sustained suppression
[14]; 25 mg QD
  maximum suppression of serum 7α-C4 levels (reduction): 74%
[14]; 75 mg QD
  maximum suppression of serum 7α-C4 levels (reduction): 82%
[14]; 150 mg QD
  maximum suppression of serum 7α-C4 levels (reduction): 91%
[14]; Day 1, all dosed groups (25, 75, 150 mg)
  suppression of serum 7α-C4 levels after a single dose: partial suppression
[15]
  collagen, type 1, alpha 1 expression in the liver compared to control NASH mice: decreased
[16]; single oral 10 mg/kg
  number of differentially expressed genes modulated vs vehicle: 500 genes
  number of global pathways enriched: 32 pathways
[17]
  induction of FXR-specific genes (liver SHP1, liver OSTb, ileum SHP1, ileum FGF15): preferentially induces FXR-specific genes in the liver

## CC[C@H]1[C@@H](O)[C@@H]2[C@H](CC[C@]3(C)[C@@H]([C@H](C)CCC(=O)O)CC[C@@H]23)[C@@]2(C)CC[C@@H](O)C[C@@H]12 [OCA, obeticholic acid, reference compound]
[18]
  pruritus: known to result in pruritus
[16]; single oral 30 mg/kg
  number of differentially expressed genes modulated vs vehicle: 44 genes
  number of global pathways enriched: 6 pathways

## O=C(O)c1ccnc(N2CC(O)(c3ccc(OCc4c(-c5c(Cl)cccc5Cl)noc4C4CC4)cc3Cl)C2)c1 [cilofexor]
[18]
  pruritus: known to result in pruritus

## O=C(O)c1cc(F)c2nc(N3[C@@H]4CC[C@H]3C[C@@H](OCc3c(-c5ccccc5OC(F)(F)F)noc3C3CC3)C4)sc2c1 [tropifexor]
[18]
  pruritus: known to result in pruritus

— patent publication US20220387414A1, “TREATING LIVER DISORDERS” (Terns Pharmaceuticals Inc., priority 2019, published 2022)
